What follows are compounds tested against T1, GST-Aurora A (Homo sapiens, UniProt O14965) (assay: Aurora A IC50, Caliper LC3000 mobility shift assay). Details: LC3000 method; 15 uM ATP (the KM value); read-out: Aurora Kinase A Activity (IC50).
T1 construct: N-terminal GST fusion with full length Aurora A (1-403 amino acids); purchased Carna Biosciences 05-101
T1 sequence (O14965 1-403): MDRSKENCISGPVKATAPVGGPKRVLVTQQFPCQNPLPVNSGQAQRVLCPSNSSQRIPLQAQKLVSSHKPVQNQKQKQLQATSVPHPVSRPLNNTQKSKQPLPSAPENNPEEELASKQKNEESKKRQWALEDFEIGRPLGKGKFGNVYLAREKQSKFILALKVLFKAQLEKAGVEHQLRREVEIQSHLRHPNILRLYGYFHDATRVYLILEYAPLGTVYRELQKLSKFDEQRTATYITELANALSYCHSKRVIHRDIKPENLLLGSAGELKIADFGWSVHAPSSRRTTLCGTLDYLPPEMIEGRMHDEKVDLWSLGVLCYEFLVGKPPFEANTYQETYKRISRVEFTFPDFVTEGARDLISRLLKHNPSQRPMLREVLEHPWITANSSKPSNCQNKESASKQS
Format: biochemical
Outline: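 Readout: percent conversion of FITC-LRRASLG (1 uM) to phosphopeptide, resolved electrophoretically on a Caliper LC3000, fitted against inhibitor concentration for IC50. Reaction: N-terminal GST full-length Aurora A, ATP at its KM (15 uM), pH 7.5 HEPES with MgCl2/DTT, 25 C for 90 min.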
O=c1[nH]c2ncccc2c2cc(NCc3ccccc3[N+](=O)[O-])ccc12 [Compound 466, 9-(2-Nitrobenzylamino)benzo[c][1,8]naphthyridin-6(5H)-one] was tested, and the IC50 was > 100 nM.
For O=c1[nH]c2ncccc2c2cc(NCc3cc(C(F)(F)F)ccc3C(F)(F)F)ccc12 [Compound 468, 9-(2,5-Bis(trifluoromethyl)benzylamino)benzo[c][1,8]naphthyridin-6(5H)-one], the IC50 was > 100 nM.
O=c1[nH]c2ncccc2c2cc(NCc3ccccc3Br)ccc12 [Compound 469, 9-(2-Bromobenzylamino)benzo[c][1,8]naphthyridin-6(5H)-one] gave an IC50 of 11 to 100 nM.
For O=c1[nH]c2ncccc2c2cc(NCc3ccccc3Cl)ccc12 [Compound 470, 9-(2-Chlorobenzylamino)benzo[c][1,8]naphthyridin-6(5H)-one], the IC50 was 11 to 100 nM.
In the case of O=c1[nH]c2ncccc2c2cc(NCc3c(F)cccc3Cl)ccc12 [Compound 471, 9-(2-Chloro-6-fluorobenzylamino)benzo[c][1,8]naphthyridin-6(5H)-one], the IC50 is reported as > 100 nM.
With CN1CCCC1CCNc1ccc2c(=O)[nH]c3ncccc3c2c1 (centres unmarked) [Compound 475, 9-(2-(1-Methylpyrrolidin-2-yl)ethylamino)benzo[c][1,8]naphthyridin-6(5H)-one] the IC50 was > 100 nM.
In the case of O=c1[nH]c2ncccc2c2cc(NCc3ccc4c(c3)OCO4)ccc12 [Compound 476, 9-(Benzo[d][1,3]dioxol-5-ylmethylamino)benzo[c][1,8]naphthyridin-6(5H)-one], the IC50 is reported as > 100 nM.
For O=C1CCCN1CCCNc1ccc2c(=O)[nH]c3ncccc3c2c1 [Compound 479, 9-(3-(2-Oxopyrrolidin-1-yl)propylamino)benzo[c][1,8]naphthyridin-6(5H)-one], the IC50 was > 100 nM.
With O=C(CN1CCC(Nc2ccnc3[nH]c(=O)c4ccccc4c23)CC1)Nc1ccccn1 [Compound 483, 2-(4-(6-Oxo-5,6-dihydrobenzo[c][1,8]naphthyridin-1-ylamino)piperidin-1-yl)-N-(pyridin-2-yl)acetamide] the IC50 was > 100 nM.
With O=C(CN1CCC(Nc2ccnc3[nH]c(=O)c4ccccc4c23)CC1)NC1CCCCC1 [Compound 485, N-Cyclohexyl-2-(4-(6-oxo-5,6-dihydrobenzo[c][1,8]naphthyridin-1-ylamino)piperidin-1-yl)acetamide] the IC50 was > 100 nM.
With O=C(CN1CCC(Nc2ccnc3[nH]c(=O)c4ccccc4c23)CC1)NC1CC1 [Compound 488, N-Cyclopropyl-2-(4-(6-oxo-5,6-dihydrobenzo[c][1,8]naphthyridin-1-ylamino)piperidin-1-yl)acetamide] the IC50 was > 100 nM.
Work on O=C(Nc1ccc(Nc2ccnc3[nH]c(=O)c4ccccc4c23)cc1)C1(c2ccccc2)CCCC1 [Compound 494, N-(4-(6-Oxo-5,6-dihydrobenzo[c][1,8]naphthyridin-1-ylamino)phenyl)-1-phenylcyclopentanecarboxamide] yielded an IC50 of 11 to 100 nM.
O=C(Nc1ccc(Nc2ccnc3[nH]c(=O)c4ccccc4c23)cc1)C(CC1CCCO1)C(F)(F)F (centres unmarked) [Compound 495, 3,3,3-Trifluoro-N-(4-(6-oxo-5,6-dihydrobenzo[c][1,8]naphthyridin-1-ylamino)phenyl)-2-((tetrahydrofuran-2-yl)methyl)propanamide] showed an IC50 of 11 to 100 nM.
In the case of O=C(Nc1ccc(Nc2ccnc3[nH]c(=O)c4ccccc4c23)cc1)c1cccnc1C(F)(F)F [Compound 498, N-(4-(6-Oxo-5,6-dihydrobenzo[c][1,8]naphthyridin-1-ylamino)phenyl)-2-(trifluoromethyl)nicotinamide], the IC50 is reported as < 11 nM.
O=C(Nc1ccc(Nc2ccnc3[nH]c(=O)c4ccccc4c23)cc1)C1(C(F)(F)F)CCCCC1 [Compound 499, N-(4-(6-Oxo-5,6-dihydrobenzo[c][1,8]naphthyridin-1-ylamino)phenyl)-1-(trifluoromethyl)cyclohexanecarboxamide] gave an IC50 of 11 to 100 nM.
O=C(Nc1ccc(Nc2ccnc3[nH]c(=O)c4ccccc4c23)cc1)C1(C(F)(F)F)CCCC1 [Compound 500, N-(4-(6-Oxo-5,6-dihydrobenzo[c][1,8]naphthyridin-1-ylamino)phenyl)-1-(trifluoromethyl)cyclopentanecarboxamide] showed an IC50 of 11 to 100 nM.
O=C(Nc1ccc(Nc2ccnc3[nH]c(=O)c4ccccc4c23)cc1)C1(C(F)(F)F)CC1 [Compound 501, N-(4-(6-Oxo-5,6-dihydrobenzo[c][1,8]naphthyridin-1-ylamino)phenyl)-1-(trifluoromethyl)cyclopropanecarboxamide] gave an IC50 of 11 to 100 nM.
Work on O=C(Nc1ccc(Nc2ccnc3[nH]c(=O)c4ccccc4c23)cc1)C1(c2ccccc2)CC1 [Compound 502, N-(4-(6-Oxo-5,6-dihydrobenzo[c][1,8]naphthyridin-1-ylamino)phenyl)-1-phenylcyclopropanecarboxamide] yielded an IC50 of 11 to 100 nM.
O=C(Cn1cccn1)Nc1ccc(Nc2ccnc3[nH]c(=O)c4ccccc4c23)cc1 [Compound 503, N-(4-(6-Oxo-5,6-dihydrobenzo[c][1,8]naphthyridin-1-ylamino)phenyl)-2-(1H-pyrazol-1-yl)acetamide] was tested, and the IC50 was 11 to 100 nM.
With COc1cccc(F)c1C(=O)Nc1ccc(Nc2ccnc3[nH]c(=O)c4ccccc4c23)cc1 [Compound 504, 2-Fluoro-6-methoxy-N-(4-(6-oxo-5,6-dihydrobenzo[c][1,8]naphthyridin-1-ylamino)phenyl)benzamide] the IC50 was < 11 nM.
Compound O=C(Nc1ccc(Nc2ccnc3[nH]c(=O)c4ccccc4c23)cc1)C(F)c1ccccc1 (centres unmarked) [Compound 505, 2-Fluoro-N-(4-(6-oxo-5,6-dihydrobenzo[c][1,8]naphthyridin-1-ylamino)phenyl)-2-phenylacetamide] has an IC50 of 11 to 100 nM.
In the case of O=C(Nc1ccc(Nc2ccnc3[nH]c(=O)c4ccccc4c23)cc1)c1ncccc1F [Compound 506, 3-Fluoro-N-(4-(6-oxo-5,6-dihydrobenzo[c][1,8]naphthyridin-1-ylamino)phenyl)picolinamide], the IC50 is reported as 11 to 100 nM.
In the case of O=c1[nH]c2ncccc2c2cc(Nc3ccccc3F)ccc12 [Example 32, 9-(2-Fluoro-phenylamino)-5H-benzo[c][1,8]naphthyridin-6-one], the IC50 is reported as > 100 nM.
COc1cccc(CNc2ccc3c(=O)[nH]c4ncccc4c3c2)c1 [Example 42, 9-(3-Methoxy-benzylamino)-5H-benzo[c][1,8]naphthyridin-6-one] was tested, and the IC50 was > 100 nM.
For O=c1[nH]c2ncccc2c2cc(NCc3ccc(F)cc3)ccc12 [Example 43, 9-(4-Fluoro-benzylamino)-5H-benzo[c][1,8]naphthyridin-6-one], the IC50 was > 100 nM.
Work on O=c1[nH]c2ncccc2c2cc(NCc3ccccc3F)ccc12 [Example 44, 9-(2-Fluoro-benzylamino)-5H-benzo[c][1,8]naphthyridin-6-one] yielded an IC50 of 11 to 100 nM.
For O=c1[nH]c2ncccc2c2cc(NCc3cccc4ccccc34)ccc12 [Example 45, 9-[(Naphthalen-1-ylmethyl)-amino]-5H-benzo[c][1,8]naphthyridin-6-one], the IC50 was > 100 nM.
For Cc1ccccc1CNc1ccc2c(=O)[nH]c3ncccc3c2c1 [Example 46, 9-(2-Methyl-benzylamino)-5H-benzo[c][1,8]naphthyridin-6-one], the IC50 was > 100 nM.
Cc1cccc(CNc2ccc3c(=O)[nH]c4ncccc4c3c2)c1 [Example 47, 9-(3-Methyl-benzylamino)-5H-benzo[c][1,8]naphthyridin-6-one] was tested, and the IC50 was > 100 nM.
Compound O=c1[nH]c2ncccc2c2cc(NCc3ccccc3C(F)(F)F)ccc12 [Example 48, 9-(2-Trifluoromethyl-benzylamino)-5H-benzo[c][1,8]naphthyridin-6-one] has an IC50 of 11 to 100 nM.
Clc1nc2ncccc2c2cc(NCc3ccccc3)ccc12 [Example 53, Benzyl-(6-chloro-benzo[c][1,8]naphthyridin-9-yl)-amine] was tested, and the IC50 was > 100 nM.
In the case of O=c1[nH]c2ncccc2c2cc(NCc3cccc(C(F)(F)F)c3)ccc12 [Example 69, 9-(3-Trifluoromethyl-benzylamino)-5H-benzo[c][1,8]naphthyridin-6-one], the IC50 is reported as 11 to 100 nM.
In the case of O=c1[nH]c2ncccc2c2cc(NS(=O)(=O)c3ccc(Br)cc3)ccc12 [Example 72, 4-Bromo-N-(6-oxo-5,6-dihydro-benzo[c][1,8]naphthyridin-9-yl)-benzenesulfonamide], the IC50 is reported as > 100 nM.
O=c1[nH]c2ncccc2c2cc(NCc3cccnc3)ccc12 [Example 123, 9-[(Pyridin-3-ylmethyl)-amino]-5H-benzo[c][1,8]naphthyridin-6-one] was tested, and the IC50 was > 100 nM.
For COc1ccccc1C(=O)Nc1ccc(Nc2ccnc3[nH]c(=O)c4ccccc4c23)cc1 [Example 148, 2-Methoxy-N-[4-(6-oxo-5,6-dihydro-benzo[c][1,8]naphthyridin-1-ylamino)-phenyl]-benzamide], the IC50 was < 11 nM.
In the case of Cn1ccnc1Sc1ccc(Nc2ccnc3[nH]c(=O)c4ccccc4c23)cc1Cl [Example 156, 1-[3-Chloro-4-(1-methyl-1H-imidazol-2-ylsulfanyl)-phenylamino]-5H-benzo[c][1,8]naphthyridin-6-one], the IC50 is reported as > 100 nM.
COc1cccc(C#Cc2ccnc3[nH]c(=O)c4ccccc4c23)c1 [Example 160, 1-(3-Methoxy-phenylethynyl)-5H-benzo[c][1,8]naphthyridin-6-one] was tested, and the IC50 was > 100 nM.
O=c1[nH]c2nccc(Oc3ccc(NS(=O)(=O)c4cccc(Cl)c4Cl)cc3)c2c2ccccc12 [Example 173, 2,3-Dichloro-N-[4-(6-oxo-5,6-dihydro-benzo[c][1,8]naphthyridin-1-yloxy)-phenyl]-benzenesulfonamide] gave an IC50 of 11 to 100 nM.
